Data set [1] is described as follows: Drug metabolism in Cynomolgus monkey hepatocytes assessed as (S)-6-(2-chloro-3-((6-cyclopropylpyridin-3-yl)amino)phenyl)-2-imino-6-methyl-3-((2S,4S)-2-methyltetrahydro-2H-pyran-4-yl)tetrahydropyrimidin-4(1H)-one metabolite formation. Type of data set: ADME, cell-based, Macaca fascicularis, Hepatocyte.
Data set [2] in a line: Inhibition of Plasmodium falciparum PMV by FRET assay.
The test system of data set [3] is Plasmodium falciparum. The data set can be described thus: Antimalarial activity against asexual blood stage Plasmodium falciparum 3D7 assessed as parasite growth inhibition by measuring parasitemia by LDH assay. Type of data set: functional, organism-based.
In data set [4] the test system is Plasmodium falciparum. The data set can be described thus: Resistance development in asexual blood stage Plasmodium falciparum Dd2-B2 assessed as minimum inoculum of resistance at 3 times IC50 measured on day 30 using at 2 x 10^7 inoculum by SYBR dye based flow cytometry. Type of data set: functional, organism-based. The settings on record: time 30.0 day.
Data set [5] relates to Plasmodium falciparum. The data set can be described thus: Antimalarial activity against blood stage Plasmodium infected in NSG mouse model assessed as parasite recrudescence by measuring parasitemia at 50 mg/kg, po measured 60 days by flow cytometry. Type of data set: functional, organism-based. The settings on record: time 60.0 day. (A flow cytometer gives signals particle by particle.)

A short description of data set [6]: AUClast in NSG mouse at 50 mg/kg, po by LC-MS/MS analysis. Type of data set: ADME, organism-based. Also noted: time 0 - last, dose 50 mg/kg, route po. Particulars: in vivo.
In data set [7] the test system is Plasmodium berghei. Kind of data set: Antimalarial activity against Plasmodium berghei sporozoites infected in naive C57B/6 liver mouse model assessed as decrease in liver infection at 50 mg/kg, po administered once daily for 1 to 2 days by Giemsa staining based microscopic analysis. The settings on record: time 1-2 day. Type of data set: functional, organism-based.

Data set [8] relates to Plasmodium berghei. The data set can be described thus: Antimalarial activity against luciferase expressing Plasmodium berghei sporozoites infected in naive C57B/6 liver mouse model assessed as decrease in liver infection at 50 mg/kg, po administered once daily on day 8 by Giemsa staining based microscopic analysis. Type of data set: functional, organism-based. Particulars: time 8.0 day.

Data set [9] is described as follows: Lipophilicity, logD of compound at pH 7.4. Type of data set: physicochemical. The settings on record: buffer.
Data set [10] in a line: Drug metabolism in dog hepatocytes assessed as (S)-6-(2-chloro-3-((6-cyclopropylpyridin-3-yl)amino)phenyl)-2-imino-6-methyl-3-((2S,4S)-2-methyltetrahydro-2H-pyran-4-yl)tetrahydropyrimidin-4(1H)-one metabolite formation. Type of data set: ADME, cell-based, Canis lupus familiaris, Hepatocyte.
The target in data set [11] is Voltage-dependent L-type calcium channel subunit alpha-1C (Homo sapiens, UniProt Q13936). Kind of data set: Inhibition of Cav1.2 (unknown origin) cardiac ion channel by patch clamp assay. Type of data set: toxicity. In general terms: Patch clamp records ionic current or voltage across a cell membrane.
Chain of Voltage-dependent L-type calcium channel subunit alpha-1C (Q13936 whole entry): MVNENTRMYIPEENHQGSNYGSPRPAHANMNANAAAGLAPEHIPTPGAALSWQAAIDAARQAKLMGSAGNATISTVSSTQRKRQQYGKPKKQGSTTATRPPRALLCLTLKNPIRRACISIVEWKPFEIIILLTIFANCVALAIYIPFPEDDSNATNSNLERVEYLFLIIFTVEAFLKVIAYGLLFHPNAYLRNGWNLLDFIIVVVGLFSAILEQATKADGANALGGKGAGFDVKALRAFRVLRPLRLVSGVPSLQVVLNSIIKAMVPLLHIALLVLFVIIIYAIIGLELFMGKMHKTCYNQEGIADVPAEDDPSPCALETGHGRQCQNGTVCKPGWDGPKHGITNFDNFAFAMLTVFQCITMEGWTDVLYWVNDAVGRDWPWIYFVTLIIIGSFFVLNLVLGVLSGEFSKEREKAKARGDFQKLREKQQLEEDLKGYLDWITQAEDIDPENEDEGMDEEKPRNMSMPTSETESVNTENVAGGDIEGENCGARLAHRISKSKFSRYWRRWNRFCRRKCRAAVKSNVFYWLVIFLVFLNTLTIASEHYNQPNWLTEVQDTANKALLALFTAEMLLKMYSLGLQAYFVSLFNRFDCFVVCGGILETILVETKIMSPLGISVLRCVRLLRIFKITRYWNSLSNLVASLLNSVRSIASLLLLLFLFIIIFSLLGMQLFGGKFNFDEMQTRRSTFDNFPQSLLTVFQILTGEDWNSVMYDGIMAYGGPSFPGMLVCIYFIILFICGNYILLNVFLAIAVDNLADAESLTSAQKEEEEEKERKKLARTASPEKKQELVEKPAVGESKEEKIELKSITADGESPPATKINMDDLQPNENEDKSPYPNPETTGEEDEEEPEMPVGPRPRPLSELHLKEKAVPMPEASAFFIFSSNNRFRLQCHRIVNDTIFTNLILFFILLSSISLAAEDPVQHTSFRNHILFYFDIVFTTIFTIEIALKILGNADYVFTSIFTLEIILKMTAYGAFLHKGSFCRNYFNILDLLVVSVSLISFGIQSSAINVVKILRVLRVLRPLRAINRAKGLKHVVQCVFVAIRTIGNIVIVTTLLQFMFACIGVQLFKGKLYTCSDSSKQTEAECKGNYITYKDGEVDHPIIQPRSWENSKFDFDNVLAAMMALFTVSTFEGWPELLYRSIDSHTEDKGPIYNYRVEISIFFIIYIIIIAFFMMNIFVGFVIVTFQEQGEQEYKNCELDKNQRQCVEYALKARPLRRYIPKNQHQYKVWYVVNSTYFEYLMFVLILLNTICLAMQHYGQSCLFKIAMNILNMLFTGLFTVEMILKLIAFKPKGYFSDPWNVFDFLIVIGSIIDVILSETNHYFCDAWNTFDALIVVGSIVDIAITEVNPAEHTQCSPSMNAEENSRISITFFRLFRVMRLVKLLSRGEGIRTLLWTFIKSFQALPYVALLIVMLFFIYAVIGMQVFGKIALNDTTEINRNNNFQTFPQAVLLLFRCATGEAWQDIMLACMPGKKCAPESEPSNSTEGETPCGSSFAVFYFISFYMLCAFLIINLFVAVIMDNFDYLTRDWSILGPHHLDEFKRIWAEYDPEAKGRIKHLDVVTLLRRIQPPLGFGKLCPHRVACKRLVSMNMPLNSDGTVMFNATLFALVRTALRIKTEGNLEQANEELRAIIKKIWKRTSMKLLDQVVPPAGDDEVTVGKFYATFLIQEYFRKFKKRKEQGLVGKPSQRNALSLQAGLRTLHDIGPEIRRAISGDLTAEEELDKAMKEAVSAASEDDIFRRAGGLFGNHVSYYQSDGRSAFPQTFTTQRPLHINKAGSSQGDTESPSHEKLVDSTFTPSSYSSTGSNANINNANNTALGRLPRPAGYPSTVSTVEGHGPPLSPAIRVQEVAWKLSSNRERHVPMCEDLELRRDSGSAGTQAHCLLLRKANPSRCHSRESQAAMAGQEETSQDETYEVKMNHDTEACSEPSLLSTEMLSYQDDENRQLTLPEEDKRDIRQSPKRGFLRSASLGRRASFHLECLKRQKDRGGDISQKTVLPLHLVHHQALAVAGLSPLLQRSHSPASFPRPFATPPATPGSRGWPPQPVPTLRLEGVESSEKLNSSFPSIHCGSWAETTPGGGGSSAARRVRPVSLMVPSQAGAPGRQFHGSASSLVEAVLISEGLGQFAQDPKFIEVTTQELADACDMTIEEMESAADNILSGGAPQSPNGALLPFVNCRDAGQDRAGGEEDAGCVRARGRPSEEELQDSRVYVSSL
For data set [12], the species on record is Homo sapiens. The data set can be described thus: Inhibition of BACE (unknown origin) at 10 uM relative to control.
For data set [13], the system named is Plasmodium falciparum. The data set can be described thus: Antimalarial activity against Plasmodium falciparum 7G8 harbouring Pf-crt, Pf-mdrl,Pf-dhfr, Pf-dhps mutated loci assessed as inhibition of parasite growth pretreated for 48 hrs followed by [3H]-hypoxanthine addition measured after 24 hrs by scintillation counting method. Type of data set: functional, organism-based.

Data set [14] relates to Plasmodium falciparum. The data set can be described thus: Antimalarial activity against Plasmodium falciparum Dd2 harbouring Pf-crt, Pf-mdrl,Pf-dhfr, Pf-dhps mutated loci assessed as inhibition of parasite growth pretreated for 48 hrs followed by [3H]-hypoxanthine addition measured after 24 hrs by scintillation counting method. Type of data set: functional, organism-based.

For data set [15], the system named is Plasmodium falciparum. Kind of data set: Antimalarial activity against Plasmodium falciparum TM90C2b harbouring Pf-crt, Pf-mdrl,Pfd-hfr, Pf-cytbQ0 mutated loci assessed as inhibition of parasite growth pretreated for 48 hrs followed by [3H]-hypoxanthine addition measured after 24 hrs by scintillation counting method. Type of data set: functional, organism-based.

Data set [16] concerns Plasmodium falciparum. The data set can be described thus: Antimalarial activity against DDD107498 resistant Plasmodium falciparum Dd2 harbouring pfeef2 mutated loci assessed as inhibition of parasite growth pretreated for 48 hrs followed by [3H]-hypoxanthine addition measured after 24 hrs by scintillation counting method. Type of data set: functional, organism-based.
Data set [17] has as its system Plasmodium falciparum. Kind of data set: Antimalarial activity against DSM265 resistant Plasmodium falciparum Dd2 harbouring pf-dhodh mutated loci assessed as inhibition of parasite growth pretreated for 48 hrs followed by [3H]-hypoxanthine addition measured after 24 hrs by scintillation counting method. Type of data set: functional, organism-based.
Data set [18] has as its system Plasmodium falciparum. The data set can be described thus: Antimalarial activity against ELQ300 resistant Plasmodium falciparum Dd2 harbouring pfcytB mutated loci assessed as inhibition of parasite growth pretreated for 48 hrs followed by [3H]-hypoxanthine addition measured after 24 hrs by scintillation counting method. Type of data set: functional, organism-based.

The test system of data set [19] is Plasmodium falciparum. Kind of data set: Antimalarial activity against KAF156 resistant Plasmodium falciparum Dd2 harbouring pf-carl mutated loci assessed as inhibition of parasite growth pretreated for 48 hrs followed by [3H]-hypoxanthine addition measured after 24 hrs by scintillation counting method. Type of data set: functional, organism-based.
Data set [20] in a line: Intrinsic clearance in rat hepatocytes measured per 10^6 cells. Type of data set: ADME, cell-based, Hepatocyte.
Data set [21] is described as follows: Clearance in Sprague-Dawley rat blood at 1 mg/kg, iv measured at 2 to 72 hrs by LC-MS/MS analysis. Type of data set: ADME, organism-based. Particulars: whole blood, time 2-72 hrs.
Data set [22] is described as follows: Clearance in Cynomolgus monkey blood at 1 mg/kg, iv measured at 2 to 72 hrs by LC-MS/MS analysis. Type of data set: ADME, organism-based, Macaca fascicularis. The settings on record: whole blood, time 2-72 hrs.
A short description of data set [23]: Cmax in Cynomolgus monkey blood at 10 mg/kg, po measured at 2 to 72 hrs by LC-MS/MS analysis. Type of data set: ADME, organism-based, Macaca fascicularis. Also noted: dose 10 mg/kg, time 2-72 hrs, route po. Particulars: whole blood.
A short description of data set [24]: Oral bioavailability in Cynomolgus monkey blood at 10 mg/kg measured at 2 to 72 hrs by LC-MS/MS analysis. The settings on record: time 2-72 hrs. Type of data set: ADME, organism-based, Macaca fascicularis.
Data set [25] can be described thus: Cardiotoxicity in anesthetized guinea-pig assessed as decrease in heart rate. Type of data set: toxicity, Cavia porcellus. Particulars: 0.09 µM, DDE = dose-dependent effect, dose 90 nM.
Data set [26] in a line: Cardiotoxicity in anesthetized guinea-pig assessed as decrease in arterial blood pressure. Type of data set: toxicity, Cavia porcellus. The settings on record: 0.09 µM, DDE = dose-dependent effect, dose 90 nM.
A short description of data set [27]: Cardiotoxicity in anesthetized guinea-pig assessed as cardiac contractility. Type of data set: toxicity, Cavia porcellus. Particulars: 0.09 µM, DDE = dose-dependent effect, dose 90 nM.
Data set [28] is described as follows: AUC in Han Wistar rat at 1000 mg/kg, po administered every other day for 7 days. Type of data set: ADME, organism-based. Also noted: dose 1000 mg/kg, time 7 day, route po. Particulars: in vivo, 168 h.
The nature of data set [29]: fCmax in Han Wistar rat at 1000 mg/kg, po administered every other day for 7 days. Type of data set: ADME, organism-based. The settings on record: in vivo, 168 h, time 7 day.
Data set [30] is described as follows: Toxicity in Han Wistar rat assessed as effect on auditory reflex at 250 to 1000 mg/kg, po administered every other day for 7 days. Type of data set: organism-based. Particulars: in vivo, 168 h, dose 250-1000 mg/kg, time 7 day.
Data set [31] in a line: Toxicity in Han Wistar rat assessed as effect on mydriasis at 250 to 1000 mg/kg, po administered every other day for 7 days. Type of data set: organism-based. The settings on record: in vivo, 168 h, dose 250-1000 mg/kg, time 7 day.
A short description of data set [32]: Toxicity in Han Wistar rat assessed as body weight gain at 250 to 1000 mg/kg, po administered every other day for 7 days. Type of data set: organism-based. The settings on record: in vivo, 168 h, dose 250-1000 mg/kg, time 7 day.
A short description of data set [33]: Toxicity in Han Wistar rat assessed as effect on photopic amplitude at 1000 mg/kg, po administered every other day for 7 days by ERG analysis. Type of data set: organism-based. Particulars: in vivo, 168 h, time 7 day.
A short description of data set [34]: Toxicity in Han Wistar rat assessed as effect on implicit times and latency at 1000 mg/kg, po administered every other day for 7 days by ERG analysis. Type of data set: organism-based. Particulars: in vivo, 168 h, time 7 day.
A short description of data set [35]: Genotoxicity in Han Wistar rat by micronucleus assay. Type of data set: toxicity.
A short description of data set [36]: Genotoxicity in Han Wistar rat by ames assay. Type of data set: toxicity.
A short description of data set [37]: Phototoxicity assessed as minimum extinction coefficient of the compound. Type of data set: toxicity.
Data set [38] concerns NIH3T3. Kind of data set: Phototoxicity against mouse 3T3 cells by neutral red uptake assay. Type of data set: toxicity, cell-based.
Data set [39] has as its target Plasmepsin X (Plasmodium falciparum (isolate 3D7)) (UniProt Q8IAS0). The settings on record: Expi293F GnTI-.
Description: (§1) Inhibition of Plasmodium falciparum recombinant C-terminal TEV cleavable 8his-tagged PMX by FRET assay
Data set [40] is described as follows: in vivo. Particulars: cynomolgus monkey, blood, po, 10 mg/kg.
Data set [41] concerns the target Plasmepsin X (Plasmodium falciparum (isolate 3D7), UniProt Q8IAS0). Kind of data set: biochemical.
Description: as §1

The record followed here is ChEMBL document CHEMBL5108065 (J Med Chem, 2022).

Calls of active or inactive are those of the source. The calls are words filed in the database; no cut-off is given here. A value given as a limit tells only on which side of the number the result lay.

Chain of Plasmepsin X (Plasmodium falciparum (isolate 3D7)) (Q8IAS0 whole entry): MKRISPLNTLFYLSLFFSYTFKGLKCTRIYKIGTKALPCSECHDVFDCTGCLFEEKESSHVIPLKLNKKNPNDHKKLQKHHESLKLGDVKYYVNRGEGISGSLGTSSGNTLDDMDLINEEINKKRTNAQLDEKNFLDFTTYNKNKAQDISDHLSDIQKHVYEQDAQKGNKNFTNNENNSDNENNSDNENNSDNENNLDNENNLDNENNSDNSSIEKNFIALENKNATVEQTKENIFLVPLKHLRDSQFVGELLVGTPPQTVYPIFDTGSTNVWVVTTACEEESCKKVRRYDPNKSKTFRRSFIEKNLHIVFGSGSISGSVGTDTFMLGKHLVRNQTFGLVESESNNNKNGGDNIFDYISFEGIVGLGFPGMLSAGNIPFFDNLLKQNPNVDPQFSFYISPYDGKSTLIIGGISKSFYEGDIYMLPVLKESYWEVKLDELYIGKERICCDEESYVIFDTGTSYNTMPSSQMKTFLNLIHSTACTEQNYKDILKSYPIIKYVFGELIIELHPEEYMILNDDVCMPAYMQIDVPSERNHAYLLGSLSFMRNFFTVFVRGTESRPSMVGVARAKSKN
Chain of Plasmepsin X (Q8IAS0 whole entry): as above

As for `C[C@H]1C[C@@H](N2C(=N)N[C@](C)(c3cccc(Nc4ccc(C5CC5)nc4)c3Cl)CC2=O)CCO1`, the Drug metabolism result in data set [1] and in [10] was “Metabolite_Detected” each time. Besides, the half-inhibitory concentration (IC50) in data set [2] was above 10000 nM; in data set [3], 14 nM; in data set [11], 27000 nM. Moreover, the result in [4], in [5], in data set [7] and in data set [8] was Active. For the same compound, in data set [6], the AUC was 2 10^6nM. In addition, in data set [9], the logD came to 2.5.
`C[C@H]1C[C@@H](N2C(=N)N[C@](C)(c3cccc(NC(=O)c4cccc(C#N)c4)c3Cl)CC2=O)CCO1` came in with an inhibition in data set [12] of 64%. Also, the IC50 came to 24 nM in data set [13]; 18 nM in data set [14]; 15 nM in data set [15]; 22 nM in data set [16]; 22 nM in data set [17]; 17 nM in data set [18]. Besides, the IC50 was 19 nM in data set [19] and 7 nM in data set [41]. The compound also had a CLH in data set [20] of 66 µL/min. Besides, the clearance is 43.9 mL/min/kg in data set [21] and 18.9 mL/min/kg in data set [22]. This compound also registered a Cmax in [23] of 2560 nM. In data set [24], this compound showed a bioavailability of 39%. In addition, the Activity result is reported as “Dde” in [25]; “Dde” in data set [26]; “Dde” in [27]; “Non-Toxic” in data set [30]; “Non-Toxic” in data set [31]; “Non-Toxic” in data set [32]. Besides, the Activity entry in data set [33] was “Non-Toxic”; in data set [34], “Non-Toxic”; in data set [35] it was “Non-Toxic”; in data set [36] it was “Non-Toxic”; in data set [37], 2336 a.u.L/mol.cm; in data set [38], “Non-Toxic”. The AUC in data set [28] was 2182 µM·h. In data set [29], this compound registered a fCmax of 11 µM. In [39], this compound registered a 90% effect concentration (IC90) of 52 nM. In data set [40], the time of peak concentration (Tmax) worked out at 1 h.

For orientation: IC50 means the concentration at which inhibition is half-maximal. The term AUC denotes concentration integrated over time. By logD is commonly meant the decadic logarithm of the distribution of all forms, ionised or not, between an organic phase and buffer at a given pH. The inhibition is how much of the control response was suppressed. What is called clearance is the rate of elimination divided by the concentration. By Cmax is commonly meant the highest concentration seen after dosing. For orientation: bioavailability means the share of a dose that reaches the circulation, judged against a reference dose that is usually intravenous. As usually defined, the IC90 is the point of the concentration-response curve where the effect stands at 90%. As a reminder, the Tmax is the time at which the peak concentration occurs.
